This passage reports IC50 and EC50 results from patent US11926628B2 (Gilead Sciences, Inc., priority 2021, dated 2024).

Molecules are shown by their SMILES.

One test deals with human DGKα (Homo sapiens (Human), UniProt P23743). Description: DGKα Biochemical Activity Assay (ADP-Glo). Particulars: recombinant DGKα 1 nM, 100 μM ATP, 18:1 DAG/POPS/octylglucoside micelles, 1 hour at 25° C.; geometric mean; read-out: HTBS DGKa 1X ATP KM IC50. The text has this: Alternatively, the enzymatic activity of human DGKα was monitored in a biochemical assay in the presence or absence of compounds and using micelles containing 18:1 Diacylglycerol (DAG), 16:0-18:1 PS (POPS) and Octylglucoside as substrate. DGKα activity led to conversion of DAG and ATP to Phosphatidic Acid (PA) and ADP. Levels of ADP were monitored by bioluminescence using the ADP-Glo Kinase Assay (Promega) and were indicative of DGKα activity.
human DGKα, sequence (P23743 whole entry): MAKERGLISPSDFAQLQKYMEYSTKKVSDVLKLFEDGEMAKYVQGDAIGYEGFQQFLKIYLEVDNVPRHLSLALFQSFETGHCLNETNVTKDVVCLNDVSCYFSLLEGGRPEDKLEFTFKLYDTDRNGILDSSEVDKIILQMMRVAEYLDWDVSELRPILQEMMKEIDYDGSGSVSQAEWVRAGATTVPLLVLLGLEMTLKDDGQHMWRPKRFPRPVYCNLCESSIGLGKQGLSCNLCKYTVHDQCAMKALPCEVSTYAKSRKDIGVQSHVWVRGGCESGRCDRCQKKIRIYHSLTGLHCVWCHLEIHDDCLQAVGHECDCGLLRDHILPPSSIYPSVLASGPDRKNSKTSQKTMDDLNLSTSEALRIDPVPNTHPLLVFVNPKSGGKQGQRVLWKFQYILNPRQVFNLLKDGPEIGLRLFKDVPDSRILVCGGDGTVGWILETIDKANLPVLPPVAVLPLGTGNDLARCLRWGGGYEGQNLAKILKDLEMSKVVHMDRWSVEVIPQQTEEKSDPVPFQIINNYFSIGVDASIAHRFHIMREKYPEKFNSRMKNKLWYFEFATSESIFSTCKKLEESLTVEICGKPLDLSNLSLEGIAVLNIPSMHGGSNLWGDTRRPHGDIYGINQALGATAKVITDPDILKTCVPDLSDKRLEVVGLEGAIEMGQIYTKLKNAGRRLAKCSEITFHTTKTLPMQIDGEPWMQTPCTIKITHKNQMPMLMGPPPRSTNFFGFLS
Ten nanoliters of test compound dissolved in DMSO at various concentrations were dispensed into a 384-well low volume nonbinding service white plates (Corning #3824) using a Labcyte Echo instrument. Recombinant DGKα (Carna Biosciences) in assay buffer (5 μL in 50 mM MOPS [3-(N-morpholino) propanesulfonic acid], pH 7.2; 0.0025% Triton X-100; 1 mM dithiothreitol; 5 mM MgCl2, 200 μM ATP) was added to the compound-containing plate and was incubated for 15 minutes at 25° C. A substrate solution (5 μL in 1.7 mM 1,2-dioleoyl-sn-glycerol [18:1 DAG], 13.5 mM 1-palmitoyl-2-oleoyl-sn-glycero-3-phospho-L-serine [16:0-18:1 PS](POPS), 2 μM CaCl2, 100 mM Octylglucoside (OG), 1 mM DTT) (obtained from Carna Biosciences) diluted in DGK ALPHA assay buffer was then added to start the reaction. Final concentrations were 1 nM DGKα, 100 μM ATP, 1 μM calcium chloride, 0.85 mM 1,2-dioleoyl-sn-glycerol (18:1 DAG), 6.75 mM 1-palmitoyl-2-oleoyl-sn-glycero-3-phospho-L-serine (16:0-18:1 PS) (POPS), 1 μM CaCl2), 50 mM Octylglucoside (OG) and 5 mM MgCl2. The reaction mixture was incubated at 25° C. for 1 hour. ADP-Glo Reagent (10 μL, 10 mM Mg added) provided by the kit was added to each well and incubated at 25° C. for 40 minutes. Then, 20 μL of Kinase Detection Reagent was added and incubated at 25° C. for 40 minutes. Luciferase activity of each well was measured via luminescence on an Envision plate reader (PerkinElmer).
Data were normalized based on maximum inhibition (50 μM of kinase inhibitor CU3) and no inhibition (DMSO) controls. Least squares curve fittings were performed using a four-parameter variable slope nonlinear regression model. IC50 was defined as the concentration of compound required to inhibit 50% of maximum activity. IC50 values from multiple experiments were averaged by geometric mean and the standard deviation was calculated.

In test [1] the test system is Jurkat NFκB-luciferase cells. Description: Jurkat NFκB-Luciferase Assay. In kind it is cell-based. Particulars: Homo sapiens; Jurkat NFκB-luciferase cells activated with anti-CD3 antibody (OKT3), 2.5 hrs at 37° C.; geometric mean; read-out: DGK NFKb Luciferase EC50. As for the experimental part: The activity of compounds was tested in a cell based NFκB reporter assay. Jurkat cells that are stably expressing a luciferase reporter construct under the transcriptional control of a NFκB reporter element were activated with an anti-CD3 antibody and luciferase levels were measured with a bioluminescence readout. An increase in the levels of bioluminescence was indicative of enhanced T-cell activation following DGKα inhibition by the compound.
Flat-bottom polystyrene plates (384-well, tissue culture treated) were coated overnight at 4° C. with 20 ul/well of a solution of phosphate-buffered saline supplemented with 5 ug/ml anti-CD3 antibody (clone OKT3, Biolegend). The day after, the excess antibody was washed out five times with 100 ul/well of assay medium (RPMI supplemented with 10% fetal bovine serum) using a Biotek EL406 instrument and leaving 20 ul of residual volume in each well. Jurkat NFκB-luciferase cells (Promega #) were harvested and diluted to 1 million cells/ml in assay medium. Sixty nanoliters of test compound dissolved in DMSO at various concentrations were dispensed into 384-well v-bottom polypropylene plates (Greiner) using a Labcyte Echo instrument. Thirty microliters of medium containing the Jurkat NFκB-luciferase cells were then dispensed using a Biotek MicroFlo instrument in each well of the compound-containing plate. The medium/cell/compound mixture was mixed with a Bravo instrument and 20 ul/well of the mixture was transferred to the anti-CD3-coated plate. The assay mixture was then incubated for 2.5 hrs at 37° C. followed by equilibration at 25° C. for 30 min. Forty microliters of One-Glo Ex (Promega) was then added to the assay mixture and luciferase activity was read on a Envision plate reader 7 minutes later.
Bioluminescence data were normalized based on maximum enhancement (1 micromolar of compound) and on basal activation (DMSO) controls. Least squares curve fittings were performed using a four-parameter variable slope nonlinear regression model. EC50 is defined as the concentration of compound required to produce 50% of maximum NFκB luciferase signal. EC50 values from multiple experiments were averaged by geometric mean and the standard deviation was calculated.

As to `Cc1nnc2nc(N3CCCc4c(C#CC5(C(F)F)CC5)cncc43)c3c(F)cncc3n12` [Example 35, 5-(5-((1-(difluoromethyl)cyclopropyl)ethynyl)-3,4-dihydro-1,7-naphthyridin-1(2H)-yl)-6-fluoro-1-methylpyrido[4,3-e][1,2,4]triazolo[4,3-a]pyrimidine], the IC50 at human DGKα came to 20.1 nM. In addition, in test [1], the EC50 was 5.97 nM.

As for `Cc1nnc2nc(N3CCCc4c(C#CC(C)(C)C(F)(F)F)cncc43)c3c(F)cncc3n12` [Example 36, 6-fluoro-1-methyl-5-(5-(4,4,4-trifluoro-3,3-dimethylbut-1-yn-1-yl)-3,4-dihydro-1,7-naphthyridin-1(2H)-yl)pyrido[4,3-e][1,2,4]triazolo[4,3-a]pyrimidine], on human DGKα, the 50% inhibitory concentration (IC50) was determined as 40.4 nM. Moreover, in test [1], the EC50 came out at 8.86 nM.

For `Cc1nnc2nc(N3CCCc4c(C#CC(C)(C)C#N)cncc43)c3c(F)cncc3n12` [Example 37, 4-(1-(6-fluoro-1-methylpyrido[4,3-e][1,2,4]triazolo[4,3-a]pyrimidin-5-yl)-1,2,3,4-tetrahydro-1,7-naphthyridin-5-yl)-2,2-dimethylbut-3-ynenitrile], on human DGKα, the concentration for half-maximal inhibition (IC50) came to 52.9 nM. For the same molecule, the EC50 in test [1] was found to be 54.9 nM.

Turning to `Cc1nnc2nc(N3CCCc4c(C#CC5(C)CC5)cncc43)c3c(F)cncc3n12` [Example 38, 6-fluoro-1-methyl-5-(5-((1-methylcyclopropyl)ethynyl)-3,4-dihydro-1,7-naphthyridin-1(2H)-yl)pyrido[4,3-e][1,2,4]triazolo[4,3-a]pyrimidine], the half-inhibitory concentration (IC50) at human DGKα came to 17.9 nM. In test [1], the EC50 came out at 6.07 nM.

For the molecule `Cc1nnc2nc(N3CCCc4c(C#CC5(C(F)(F)F)CC5)cncc43)c3c(F)cncc3n12` [Example 39, 6-fluoro-1-methyl-5-(5-((1-(trifluoromethyl)cyclopropyl)ethynyl)-3,4-dihydro-1,7-naphthyridin-1(2H)-yl)pyrido[4,3-e][1,2,4]triazolo[4,3-a]pyrimidine], the IC50 at human DGKα came to 26.2 nM. Moreover, in test [1], the EC50 was determined as 4.82 nM.

For the molecule `Cc1nnc2nc(N3CCCc4c(C#CC5(C)CC5)cccc43)c3c(F)cncc3n12` [Example 40, 6-fluoro-1-methyl-5-(5-((1-methylcyclopropyl)ethynyl)-3,4-dihydroquinolin-1(2H)-yl)pyrido[4,3-e][1,2,4]triazolo[4,3-a]pyrimidine], the half-inhibitory concentration (IC50) at human DGKα turned out to be 7.92 nM. Moreover, the EC50 in test [1] is 2.14 nM.

Turning to `CC(C)(O)C#Cc1cc(F)cc(N(CC(F)F)c2nc3nncn3c3cncc(F)c23)c1` [Example 42, 4-(3-((2,2-difluoroethyl)(6-fluoropyrido[4,3-e][1,2,4]triazolo[4,3-a]pyrimidin-5-yl)amino)-5-fluorophenyl)-2-methylbut-3-yn-2-ol], on human DGKα, the IC50 came to 35.4 nM. Besides, the half-maximal effective concentration (EC50) in test [1] came out at 43 nM.

For the molecule `Fc1cc(C#CC2(C(F)F)CC2)cc(N(CC(F)F)c2nc3nncn3c3cncc(F)c23)c1` [Example 43, N-(2,2-difluoroethyl)-N-(3-((1-(difluoromethyl)cyclopropyl)ethynyl)-5-fluorophenyl)-6-fluoropyrido[4,3-e][1,2,4]triazolo[4,3-a]pyrimidin-5-amine], the IC50 at human DGKα is 33 nM. In addition, the concentration giving a half-maximal response (EC50) in test [1] was found to be 5.48 nM.

As for `CC(C)(C)C#Cc1cc(F)cc(N(CC(F)F)c2nc3nncn3c3cncc(F)c23)c1` [Example 44, N-(2,2-difluoroethyl)-N-(3-(3,3-dimethylbut-1-yn-1-yl)-5-fluorophenyl)-6-fluoropyrido[4,3-e][1,2,4]triazolo[4,3-a]pyrimidin-5-amine], the half-inhibitory concentration (IC50) on human DGKα is 32.7 nM. For the same molecule, in test [1], the EC50 is 1.93 nM.

As for `CC1(C#Cc2cc(F)cc(N(CC(F)F)c3nc4nncn4c4cncc(F)c34)c2)CC1` [Example 45, N-(2,2-difluoroethyl)-6-fluoro-N-(3-fluoro-5-((1-methylcyclopropyl)ethynyl)phenyl)pyrido[4,3-e][1,2,4]triazolo[4,3-a]pyrimidin-5-amine], the IC50 at human DGKα was determined as 52.1 nM. The concentration giving a half-maximal response (EC50) in test [1] turned out to be 2.67 nM.

For `CC(C)(C#Cc1cc(F)cc(N(CC(F)F)c2nc3nncn3c3cncc(F)c23)c1)C(F)(F)F` [Example 46, N-(2,2-difluoroethyl)-6-fluoro-N-(3-fluoro-5-(4,4,4-trifluoro-3,3-dimethylbut-1-yn-1-yl)phenyl)pyrido[4,3-e][1,2,4]triazolo[4,3-a]pyrimidin-5-amine], at human DGKα, the half-inhibitory concentration (IC50) was 40.9 nM. Besides, in test [1], the EC50 amounted to 3.34 nM.

Consider `Fc1cc(C#CC2(C(F)(F)F)CC2)cc(N(CC(F)F)c2nc3nncn3c3cncc(F)c23)c1` [Example 47, N-(2,2-difluoroethyl)-6-fluoro-N-(3-fluoro-5-((1-(trifluoromethyl)cyclopropyl)ethynyl)phenyl)pyrido[4,3-e][1,2,4]triazolo[4,3-a]pyrimidin-5-amine], for which, at human DGKα, the IC50 was 50.7 nM. Also, the EC50 in test [1] stood at 4.27 nM.

For `Cc1nnc2nc(N(CC(F)F)c3cc(F)cc(C#CC(C)(C)O)c3)c3c(F)cncc3n12` [Example 48, 4-(3-((2,2-difluoroethyl)(6-fluoro-1-methylpyrido[4,3-e][1,2,4]triazolo[4,3-a]pyrimidin-5-yl)amino)-5-fluorophenyl)-2-methylbut-3-yn-2-ol], the 50% inhibitory concentration (IC50) on human DGKα was 48.9 nM. Besides, the EC50 in test [1] turned out to be 97.2 nM.

As to `Cc1nnc2nc(N(CC(F)F)c3cc(F)cc(C#CC4(C)CC4)c3)c3c(F)cncc3n12` [Example 49, N-(2,2-difluoroethyl)-6-fluoro-N-(3-fluoro-5-((1-methylcyclopropyl)ethynyl)phenyl)-1-methylpyrido[4,3-e][1,2,4]triazolo[4,3-a]pyrimidin-5-amine], at human DGKα, the concentration for half-maximal inhibition (IC50) came out at 12.6 nM. Besides, the half-maximal effective concentration (EC50) in test [1] was determined as 6.04 nM.

For the molecule `Cc1nnc2nc(N(CC(F)F)c3cc(F)cc(C#CC(C)(C)C(F)(F)F)c3)c3c(F)cncc3n12` [Example 50, N-(2,2-difluoroethyl)-6-fluoro-N-(3-fluoro-5-(4,4,4-trifluoro-3,3-dimethylbut-1-yn-1-yl)phenyl)-1-methylpyrido[4,3-e][1,2,4]triazolo[4,3-a]pyrimidin-5-amine], the IC50 at human DGKα was 13 nM. Moreover, the 50% effective concentration (EC50) in test [1] was 4.91 nM.

As to `Cc1nnc2nc(N(CC(F)F)c3cc(F)cc(C#CC4(C(F)(F)F)CC4)c3)c3c(F)cncc3n12` [Example 51, N-(2,2-difluoroethyl)-6-fluoro-N-(3-fluoro-5-((1-(trifluoromethyl)cyclopropyl)ethynyl)phenyl)-1-methylpyrido[4,3-e][1,2,4]triazolo[4,3-a]pyrimidin-5-amine], the IC50 at human DGKα came out at 36.2 nM. Moreover, the EC50 in test [1] is 9.17 nM.

Turning to `Cc1nnc2nc(N(CC(F)F)c3ccnc(C#CC(C)(C)O)c3)c3c(F)cncc3n12` [Example 52, 4-(4-((2,2-difluoroethyl)(6-fluoro-1-methylpyrido[4,3-e][1,2,4]triazolo[4,3-a]pyrimidin-5-yl)amino)pyridin-2-yl)-2-methylbut-3-yn-2-ol], at human DGKα, the IC50 worked out at 204 nM. Besides, the EC50 in test [1] is 1000 nM.
